Reference: US20160367622A1, “AGONISTS OF GUANYLATE CYCLASE USEFUL FOR THE TREATMENT OF OPIOID INDUCED DYSFUNCTIONS” (priority 2013, published 2016)
Entries after “also recorded” stand apart in the source; their conditions may differ. Positions of bridges follow the written chain, without caps; N, C: chain ends. Non-standard residues stand in square brackets, D forms with d. Residues, ends and D or L forms follow the SMILES beside them.

Legend:
[1] = system: T84 cells; assay: cyclic GMP and cyclic AMP production in T84 cells; assay type: cell-based, human; conditions: 0.01, 0.1, 1, or 10 μM SP-333
Protocol: FIG. 3A-B is a series of graphs showing that SP-333 stimulates cyclic GMP, but not cyclic AMP production in T84 cells. Cells were treated with either control, IBMX, SP-333 ([…]), forskolin (FSK) or FSK+IBMX.
The results are depicted in FIG. 3A-B. T84 cells were treated with either control, IBMX, forskolin (FSK), or 0.01, 0.1, 1, or 10 μM SP-333, and the production of cGMP or cAMP measured (pmoles/well). CPT-cGMP and CPT-cAMP both stimulate Isc across T84 cell monolayers.

[2] = system: opioid naïve animals (rats); assay: GI transit after single oral gavage dose in opioid naïve rats; assay type: in vivo, rat
[3] = system: female Sprague-Dawley rats; assay: morphine-induced delay in rat GI transit (charcoal meal); assay type: in vivo; conditions: 2.5 mg/kg morphine IP
Protocol: Animals: All study procedures were conducted under a study outline approved by the Institutional Animal Care and Use Committee of MB Research Labs (Spinnerstown, Pa.) or Lampire Biological Laboratories (Pipersville, Pa.). Seven to eight week old female Sprague-Dawley rats [Crl:CD(SD)], weighing between ˜180-210 grams, were obtained from Charles River Laboratories and allowed to acclimate for a week. Animals were maintained on a 12 hour light-dark cycle. For intestinal tissue collection and evaluation of GI transit, rats were fasted for at least 18 hours before the experiment, with free access to water.
The ability of opioids to delay GI transit in rats was tested by either administering 0 (vehicle) 0.25, 1 and 2.5 mg/kg of morphine or 0 (vehicle), 0.25, 2.5 and 5 mg/kg of methadone (1.5 ml/kg dose volume) by IP injection. Water served as vehicle control. Ten minutes later, a 2 mL charcoal meal consisting of 10% activated charcoal (Sigma-Aldrich, St. Louis, Mo.) and 10% gum Arabic (Sigma-Aldrich, St. Louis, Mo.) in water was administered via oral gavage. Rats were euthanized 10 min after the charcoal meal via IP injection of 150 mg/kg Beuthanasia-D solution (sodium pentobarbital, 390 mg/mL). The small intestine was removed and the total length from the pyloric sphincter to the ileocecal junction was recorded, as well as the distance traveled by the leading edge of the charcoal. Intestinal transit was determined by calculating the ratio (expressed as a percentage) of the distance between the pyloric sphincter and the leading edge of the charcoal to the distance between the pyloric sphincter and the ileocecal junction.
To evaluate the ability of SP-333 to reverse morphine induced delayed GI transit, animals were administered 2.5 mg/kg of morphine by IP injection followed immediately by oral gavage of 0 (vehicle), 0.5, 2.5, 5 and 50 mg/kg of SP-333 (1.5 ml/kg dose volume). Water served as vehicle control. Charcoal meal was administered ten minutes later and animals were euthanized ten minutes after the charcoal meal and intestinal transit was calculated as described above.

[4] = system: female Sprague-Dawley CD rats; assay: GI transit delay induced by repeated methadone administration in rats; assay type: in vivo, rat; conditions: SP-333 oral daily
Protocol: The ability of SP-333 to alleviate GI transit delay induced by repeated methadone administration was also evaluated in the similar manner. Female Sprague-Dawley CD rats 7 to 8 weeks of age (n=7/group) received via IP injection 16 doses of methadone (once daily; 7 doses @ 5 mg/kg and 9 doses @ 2.5 mg/kg). Ten minutes following each methadone dose, each group received an oral gavage of vehicle, 2.5, and 5 mg/kg of SP-333. At the end of the dosing regimen, animals were fasted overnight and GI transit was evaluated as described above.

CC(C)C[C@@H]1NC(=O)[C@H](CCC(=O)O)NC(=O)[C@@H](NC(=O)[C@H](CCC(=O)O)NC(=O)[C@H](CC(=O)O)NC(=O)[C@H](N)CC(N)=O)CSSC[C@@H]2NC(=O)[C@H](C)NC(=O)[C@H](C(C)C)NC(=O)[C@H](CC(N)=O)NC(=O)[C@H](C(C)C)NC(=O)[C@H](CSSC[C@@H](C(=O)N[C@H](CC(C)C)C(=O)O)NC(=O)CNC(=O)[C@H]([C@@H](C)O)NC2=O)NC1=O [SP-333, dAsn^1-Asp^2-Glu^3-Cys^4-Glu^5-Leu^6-Cys^7-Val^8-Asn^9-Val^10-Ala^11-Cys^12-Thr^13-Gly^14-Cys^15-dLeu^16] (H-[dN]DECELCVNVACTGC[dL]-OH; disulfide 4-12, 7-15)
cAMP production [1]: not cAMP synthesis; also recorded: does not result in an increase of cAMP production | cGMP production [1]: stimulates cGMP synthesis; also recorded: concentration dependent increase in cGMP levels | increase in small intestinal (GI) transit compared to vehicle controls ([2]; 0.05 mg/kg single oral gavage): 5.6% | increase in small intestinal (GI) transit compared to vehicle controls ([2]; 0.5 mg/kg single oral gavage): 13% | increase in small intestinal (GI) transit compared to vehicle controls ([2]; 5 mg/kg single oral gavage): 23% | GI transit in morphine-treated rats ([3]; then SP-333 0.5 mg/kg oral gavage): 27% | GI transit in morphine-treated rats ([3]; then SP-333 2.5 mg/kg oral gavage): 37% | GI transit in morphine-treated rats ([3]; then SP-333 5 mg/kg oral gavage): 46% | GI transit in morphine-treated rats ([3]; then SP-333 50 mg/kg oral gavage): 48% | GI-transit delay caused by repeated methadone dosing ([4]; 16 daily methadone doses (7 at 5 mg/kg, 9 at 2.5 mg/kg)): normalized GI transit; also recorded: relieved the GI-transit delay; also recorded: relieves methadone-induced GI transit delay; also recorded: statistically significant improvement in GI transit delay | GI-transit delay caused by repeated methadone dosing ([4]; methadone 2.5 mg/kg IP daily 9 days): relieved the GI-transit delay
